{"source": "patent US8097608B2", "about": "“Methods for treatment of cardiovascular disorders and diseases” (Technion Research and Development Foundation Ltd., priority 2003, dated 2012)", "key": {"H9c2 cells [1]": {"test_system": "H9c2 cells", "test": "Serum starvation-induced apoptosis in H9c2 cells, DAPI staining", "assay_type": "cell-based, rat", "experimental": "(§1) (ii) Cell Line H9c2. Experiments were performed on the embryonic rat heart cell line H9c2. H9c2 cells were cultured in DMEM (Biological Industries, Beit-Haemek, Israel) supplemented with 10% fetal calf serum (FCS), 50 units/ml penicillin G, 50 μg/ml streptomycin sulfate, 2 mg/ml L-glutamine and sodium pyruvate. H9c2 cells were harvested by trypsinization, washed with PBS, diluted to a concentration of 5×10^4 cells/ml with DMEM (high glucose) and cultured at 0.5 ml/well on sterile glass cover slips in 24-well plates.\n(§2) (b) Serum starvation—To induce apoptosis, H9c2 cultures were incubated in the culture medium containing 0% FCS for the indicated times.\n(§3) (iv) Determination of Apoptosis by DAPI. Cultures were counterstained with 4′, 6-diamidino-2-phenylindole (DAPI) to visualize the nuclear morphology.\nThe next apoptosis-inducing stimulus tested was serum starvation ([…], 0% serum in the culture medium). To induce apoptosis, H9c2 cells were incubated in the culture medium containing 0% FCS for 6, 7, 8 or 9 hours. Rasagiline (10 μM) was introduced to the culture medium 2 hours before inducing serum starvation and was present throughout the apoptosis-inducing protocol (n=3 wells).\nIn another experiment, we repeated the serum starvation protocol, and also tested in the same cultures whether rasagiline can protect against H2O2-induced apoptosis. Rasagiline was introduced to the culture medium 2 hours before inducing serum starvation or adding H2O2, and was present throughout the apoptosis-inducing protocol (n=4 experiments; ˜2000 cells counted)."}, "H9c2 cells [2]": {"test_system": "H9c2 cells", "test": "Fas-mediated (rFasL) apoptosis in H9c2 cells, DAPI staining", "assay_type": "cell-based, rat", "settings": "added 16 hours before and present throughout", "experimental": "as §1\n(c) Activation of the Fas receptor—Fas activation was induced by incubating the cultures with recombinant human Fas Ligand (rFasL; 10 ng/ml) plus the enhancing antibody (1 μg/ml) for the indicated times, according to the manufacturer's recommendations (Alexis Biochemicals, San Diego, Calif.).\nas §3\nCultures of embryonic rat heart cell line H9c2 were incubated with rFasL (10 ng/ml) and an enhancing antibody for periods of time of 9, 10 and 24 hours, and apoptosis measured thereafter.\nIn order to determine whether rasagiline can prevent Fas-mediated apoptosis, the Fas receptor was activated for 9, 10 and 24 hours as described above. Rasagiline (10 μM) was introduced to the culture medium 16 hours before, and was present throughout the apoptosis-inducing protocol (n=3 wells).\nEach one of the drugs, at a concentration of either 0.1 or 1.0 μM was introduced to the culture medium 16 hours before, and was presented throughout the apoptosis-inducing protocol (n=3 wells)."}, "[3]": {"test_system": "neonatal rat ventricular myocytes", "test": "Fas-mediated hypertrophy in cultured neonatal rat ventricular myocytes (ANP mRNA, RT-PCR)", "assay_type": "cell-based", "settings": "rFasL 24 hours; for ANP mRNA elevation induced by Fas activation: 10 μM, 3 experiments per drug", "experimental": "In order to test whether rasagiline can prevent the marked hypertrophy induced in cultured neonatal rat ventricular myocytes (for methods, see Yaniv et al., 2002), Fas was activated for 24 hours by incubation with rFasL (10 ng/ml plus 1 μg/ml of the enhancer antibody). Hypertrophy was assessed by determining the mRNA levels (by means of RT-PCR) of the atrial natriuretic peptide (ANP), which is a most common molecular marker of hypertrophy. Rasagiline ([…]) was added to the culture 1 hour before Fas activation and remained in the medium throughout the 24 hours exposure to rFasL.\nIn order to test whether S(−)—N-propargyl-1-aminoindan and propargylamine have the same effect on marked hypertrophy induced in cultured neonatal rat ventricular myocytes, similar experiments were performed using either propargylamin or S(−)—N-propargyl-1-aminoindan (both at a concentration of 10 μM) instead of rasagiline."}, "CHF rats": {"test_system": "CHF rats", "test": "Echocardiography in volume overload-induced CHF rats (AVF)", "assay_type": "in vivo, rat", "settings": "7.5 mg/kg/day orally, 21 days from 7 days prior to surgery; for Reduction in fractional shortening: day 21 (14 days post-surgery)", "experimental": "(§4) (v) Animals. Studies were conducted on male Sprague Dawley rats (Harlan Laboratories Ltd., Jerusalem, Israel), weighing ˜300 g. The animals were kept in a temperature-controlled room and maintained on standard rat diet (0.5% NaCl). All experiments were performed according to the guidelines of the Technion Committee for Supervision of Animal Experiments (Haifa, Israel). […] Sham-operated rats served as controls. Drugs (or saline as control) were orally administered, starting 7 days prior to surgery (day 0) and were continued for 21 days. Surgery was performed on day 7 and animals sacrified 14 days post-surgery (day 21). Cardiac function was determined by echocardiography on days 0, 10 (3 days post-surgery) and 21 (before sacrifice). After the last echocardiography measurement, rats were sacrified and hearts were analyzed.\nRats were treated as described in Materials and Methods hereinabove and volume overload was induced by surgical creation of an aortocaval fistula (AVF). Drugs (7.5 mg/kg/day) were administered according to the protocol described above, starting 7 days prior to surgery (day 0) and during 21 days. Cardiac function was determined by echocardiography, from which two principle parameters, namely, diastolic area and systolic area, were calculated. These parameters were used for calculating the fractional shortening, which is an established measure of the ventricular contraction capacity, according to the equation: Fractional shortening =(diastolic area-systolic area)/diastolic area."}, "[4]": {"test_system": "caspase-3 and cytochrome C in CHF rats", "test": "Caspase-3 and cytosolic cytochrome C in volume overload-induced CHF rats (AVF)", "assay_type": "in vivo, rat", "experimental": "as §4\nRats were treated as described in Materials and Methods hereinabove and volume overload was induced by surgical creation of an aortocaval fistula (AVF). Sham-operated rats served as controls. 14 days after induction of volume-overload, caspase-3 cleavage and cytosolic cytochrome C, both pro-apoptotic proteins, were analyzed.\nIn the following experiment we tested whether propargylamine or S(−)—N-propargyl-1-aminoindan can reduce CHF-induced increase in caspase-3 and cytochrome C. Rats were treated and drugs were administered (1 or 7.5 mg/kg/day S(−)—N-propargyl-1-aminoindan, or 5 mg/kg/day propargylamine) as described in Materials and Methods hereinabove."}, "[5]": {"test_system": "neonatal rat ventricular myocytes", "test": "Serum starvation-induced apoptosis in neonatal rat ventricular myocytes (caspase-3 cleavage, Bcl-2)", "assay_type": "cell-based", "settings": "0.1 μM, added 1 hour before; 0% FCS, 24 hours", "experimental": "Caspase-3 is a protein of the cysteine-aspartic acid protease (caspase) family, known as a key pro-apoptotic protein and therefore as a common marker of apoptosis.\nIn order to test whether propargylamine can prevent serum starvation-induced apoptosis in cultured neonatal rat ventricular myocytes, we repeated the serum starvation protocol and 0.1 μM propargylamine was introduced to the culture medium 1 hour before serum starvation. As shown in FIGS. 6B-6C, propargylamine attenuated serum starvation-induced apoptosis in neonatal rat ventricular myocytes as indicated both by the drug-induced decrease in caspase 3 cleavage (FIG. 6B) and increase in the expression of mitochondrial Bcl-2, known as an anti-apoptotic protein (FIG. 6C)."}, "[6]": {"test_system": "Bax, Bcl-2, PKC-ε in hearts of naïve rats", "test": "Anti-apoptotic and pro-apoptotic proteins in hearts of naive rats", "assay_type": "in vivo, rat", "settings": "5 mg/kg/day orally for 21 days", "experimental": "In this experiment we tested the effects of propargylamine and S(−)—N-propargyl-1-aminoindan on several key anti-apoptotic and pro-apoptotic proteins in hearts of naïve rats.\nThe drugs (5 mg/kg/day) were orally administered to rats for 21 days (n=4-6 rats in each group), and measurements were made after sacrifice. […] Furthermore, both propargylamine and S(−)—N-propargyl-1-aminoindan increased the expression of the key anti-apoptotic PKC-ε (FIGS. 9D-9E, respectively)."}, "[7]": {"test_system": "neonatal rat ventricular myocytes", "test": "Doxorubicin-induced apoptosis in neonatal rat ventricular myocytes (caspase-3 cleavage)", "assay_type": "cell-based", "settings": "1 or 10 μM, added 24 hours before; 1 μM doxorubicin 24 hours", "experimental": "In order to test whether propargylamine or S(−)—N-propargyl-1-aminoindan can prevent doxorubicin-induced apoptosis in cultured neonatal rat ventricular myocytes, these drugs (at a concentration of either 1 or 10 μM) were introduced to the culture medium 24 hours before the incubation (24 hours) with 1 μM doxorubicin."}, "naïve rats": {"test_system": "naïve rats", "test": "Cardiovascular hemodynamic parameters in naive rats after IV bolus", "assay_type": "in vivo, rat", "experimental": "As the first step in testing the beneficial in vivo efficacy of the propargylamine derivatives on the cardiac function, we measured key cardiovascular hemodynamic parameters in control naïve rats, and in rats administered IV with a bolus of 1 mg/kg S(−)—N-propargyl-1-aminoindan, followed with a bolus of 10 mg/kg S(−)—N-propargyl-1-aminoindan (Sprague Dawley rats were used, n=3 rats in each group). Measurements were made at baseline, 30 minutes after each drug administration, and 1 hour (recovery) after drug administration."}, "H9c2 cells [8]": {"test_system": "H9c2 cells", "test": "Serum starvation-induced apoptosis in H9c2 cells, MTT staining assay", "assay_type": "cell-based, rat", "settings": "0.1-10 μM; 0% FCS for 24 hours", "experimental": "as §2"}, "[9]": {"settings": "0.1 or 1.0 μM, ~10 hours incubation with rFasL (~10% apoptosis)"}, "[10]": {"settings": "10 mg/kg IV bolus, 30 minutes after administration"}}}
{"compound": "C#CCN[C@@H]1CCc2ccccc21", "note": "[rasagiline, R(+)—N-propargyl-1-aminoindan]", "values": [{"measurement": "Serum starvation-induced apoptosis", "setting": "H9c2 cells [1]; 10 μM, added 2 hours before, 9 hrs serum starvation (12% apoptosis)", "result": "completely prevented"}, {"measurement": "Anti-apoptotic effect, serum starvation", "setting": "H9c2 cells [1]; 0.1-10 μM, added 2 hours before, 0% FCS for 24 hours", "result": "anti-apoptotic effect"}, {"measurement": "Apoptosis induced by serum starvation", "setting": "H9c2 cells [1]; Example 3, added 2 hours before, n=4 experiments", "result": "prevented"}, {"measurement": "Fas-mediated apoptosis", "setting": "H9c2 cells [2]; 10 μM, 10 hours incubation with rFasL (~20% apoptosis)", "result": "completely prevented"}, {"measurement": "Fas-mediated hypertrophy (ANP mRNA)", "setting": "[3]; 10 μM/ml, added 1 hour before, preliminary, data not shown", "result": "prevented Fas-mediated hypertrophy"}]}
{"compound": "C#CCN", "note": "[propargylamine]", "values": [{"measurement": "Hypertrophic increase in the diastolic area", "setting": "CHF rats; 14 days post-surgery", "result": "completely prevented"}, {"measurement": "Hypertrophic increase in the systolic area", "setting": "CHF rats; 14 days post-surgery", "result": "completely prevented"}, {"measurement": "Reduction in fractional shortening", "setting": "CHF rats", "result": "completely prevented"}, {"measurement": "CHF-induced increase in caspase-3", "setting": "[4]; 5 mg/kg/day orally for 21 days", "result": "significantly reduced"}, {"measurement": "CHF-induced increase in cytochrome C", "setting": "[4]; 5 mg/kg/day orally for 21 days (FIG. 11B)", "result": "significantly reduced"}, {"measurement": "Fas-mediated apoptosis", "setting": "H9c2 cells [2]; [9]", "result": "completely prevented"}, {"measurement": "ANP mRNA elevation induced by Fas activation", "setting": "[3]", "result": "completely blocked"}, {"measurement": "Caspase 3 cleavage, serum starvation", "setting": "[5]", "result": "decrease"}, {"measurement": "Expression of mitochondrial Bcl-2, serum starvation", "setting": "[5]", "result": "increase"}, {"measurement": "Expression of anti-apoptotic PKC-ε", "setting": "[6]", "result": "increased"}, {"measurement": "Expression of mitochondrial anti-apoptotic protein Bcl-2", "setting": "[6]", "result": "markedly increased"}, {"measurement": "Expression of mitochondrial pro-apoptotic protein Bax", "setting": "[6]", "result": "did not affect"}, {"measurement": "Ratio Bcl-2/Bax", "setting": "[6]", "result": "marked increase"}, {"measurement": "Doxorubicin-induced apoptosis (caspase-3 cleavage)", "setting": "[7]", "result": "significantly attenuated"}]}
{"compound": "C#CCN[C@H]1CCc2ccccc21", "note": "[S(−)—N-propargyl-1-aminoindan]", "values": [{"measurement": "Reduction in fractional shortening", "setting": "CHF rats", "result": "completely prevented"}, {"measurement": "Hypertrophic increase in the diastolic area", "setting": "CHF rats; days 10 and 21", "result": "completely prevented"}, {"measurement": "Hypertrophic increase in the systolic area", "setting": "CHF rats; days 10 and 21", "result": "completely prevented"}, {"measurement": "Cardiac index", "setting": "naïve rats; [10]", "result": "markedly increased"}, {"measurement": "Cardiac output", "setting": "naïve rats; [10]", "result": "markedly increased"}, {"measurement": "Heart rate", "setting": "naïve rats; [10]", "result": "did not affect"}, {"measurement": "Mean arterial pressure (MAP)", "setting": "naïve rats; [10]", "result": "did not affect"}, {"measurement": "Reversibility of the effect on cardiac function", "setting": "naïve rats; washout period (recovery, 1 hour after administration)", "result": "reversible"}, {"measurement": "CHF-induced increase in cytochrome C", "setting": "[4]; 1 mg/kg/day orally for 21 days (FIG. 11B)", "result": "significantly reduced"}, {"measurement": "CHF-induced increase in caspase-3", "setting": "[4]; 7.5 mg/kg/day orally for 21 days (FIG. 11A)", "result": "significantly reduced"}, {"measurement": "Fas-mediated apoptosis", "setting": "H9c2 cells [2]; [9]", "result": "completely prevented"}, {"measurement": "ANP mRNA elevation induced by Fas activation", "setting": "[3]", "result": "completely blocked"}, {"measurement": "Anti-apoptotic effect, serum starvation, MTT staining", "setting": "H9c2 cells [8]", "result": "anti-apoptotic effect"}, {"measurement": "Expression of anti-apoptotic PKC-ε", "setting": "[6]", "result": "increased"}, {"measurement": "Doxorubicin-induced apoptosis (caspase-3 cleavage)", "setting": "[7]", "result": "significantly attenuated"}]}
